Reference: article PMC9104802 (Cells, 2022)

Legend:
[1] = biological target: T1, hTERT (telomerase reverse transcriptase) (Homo sapiens, UniProt O14746); test: fluorescence polarization with His-hTRBD, BSA negative control; supported by TRAP inhibition of reconstituted GST-opTERT/hTERC and immunoprecipitated FLAG-hTERT telomerase (IC50 […]); format: binding
T1 construct: gene TERT

[2] = system: Telo24 (human telomeric oligonucleotide, telomeric G-quadruplex) (DNA, G4) TTAGGGTTAGGGTTAGGGTTAGGG; test: microscale thermophoresis (MST); settings: K+ 100 mM KCl (plus potassium phosphate); 10 mM K2HPO4/KH2PO4 pH 7.0; 30 min; 1 μM DNA; SC 0.15625-320 μM; apparent

T1 sequence (O14746 325-550 limits assumed): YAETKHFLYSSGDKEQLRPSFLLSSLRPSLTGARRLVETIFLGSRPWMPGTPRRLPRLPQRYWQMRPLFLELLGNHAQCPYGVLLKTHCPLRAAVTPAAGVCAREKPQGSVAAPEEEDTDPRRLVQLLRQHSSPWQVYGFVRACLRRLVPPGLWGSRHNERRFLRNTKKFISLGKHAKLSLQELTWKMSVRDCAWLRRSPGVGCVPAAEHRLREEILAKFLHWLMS

C[n+]1cc2c3c(ccc2c2ccc4cc5c(cc4c21)OCO5)OCO3 [SC, Sanguinarine chloride]
EC50 [1]: 24.8 µM
EC50 [2]: 120 µM
